Test results reported in patent publication US11737999B2, “Amino acid compositions and methods for the treatment of post-acute sequelae of COVID-19” (AXCELLA HEALTH INC., priority 2021, dated 2023).

How the values were obtained:
MCP1/CCL2 = MCP1/CCL2 secretion by ELISA in primary human hepatocytes with FFA + TNFα; type: cell-based
MCP-1 = MCP-1 chemokine secretion in primary human hepatic stellate cells stimulated with TNFα; type: cell-based; conditions: hepatic stellate cells, two donors
Col1a1 = Col1a1 gene expression (RT-qPCR) in primary human hepatic stellate cells stimulated with TGFβ1; type: cell-based
IL-6 [1] = assay: IL-6 cytokine secretion in primary human hepatic stellate cells stimulated with TNFα; type: cell-based; conditions: hepatic stellate cells, two donors
IL-6 [2] = assay: LPS-induced IL-6 secretion in primary human monocyte-derived macrophages; conditions: for IL-6 Measurements, Mean: 0.15 ng/mL LPS, baseline subtracted values
TNF-α = assay: LPS-induced TNF-α secretion in primary human monocyte-derived macrophages; conditions: for TNF-α Measurements Mean (baseline subtracted): 0.15 ng/mL LPS
Procollagen Iα1 = Procollagen Iα1 secretion (ELISA) in primary human hepatic stellate cells stimulated with TGFβ1; type: cell-based; conditions: for Procollagen lα1 Secretion (Fold Change of 1X), Mean: first donor, TGFβ1 3 ng/mL 24 h
[3] = hepatic stellate cells, three donors

With `CC(=O)N[C@@H](CS)C(=O)O` [N-Acetyl Cysteine, N-acetylcysteine] the “MCP1 expression relative to Control, Mean” value (MCP1/CCL2; Donor 1, Conc. 1000 μM) was −0.7629, the “MCP1 expression relative to Control, Mean” value (MCP1/CCL2; Donor 1, Conc. 2500 μM) was −2.498 and the “MCP1 expression relative to Control, Mean” value (MCP1/CCL2; Donor 1, Conc. 5000 μM) was −10.8919. The “MCP1 expression relative to Control, Mean” value (MCP1/CCL2; Donor 1, Conc. 10000 μM) was −17.6065, the “MCP1 expression relative to Control, Mean” value (MCP1/CCL2; Donor 2, Conc. 1000 μM) was 1.602 and the “MCP1 expression relative to Control, Mean” value (MCP1/CCL2; Donor 2, Conc. 2500 μM) was −4.0591. For the same compound, the “MCP1 expression relative to Control, Mean” value (MCP1/CCL2; Donor 2, Conc. 5000 μM) was −10.5725, the “MCP1 expression relative to Control, Mean” value (MCP1/CCL2; Donor 2, Conc. 10000 μM) was −28.4419 and the “MCP1/CCL2 secretion (summary in words)” value (MCP1/CCL2; primary human hepatocytes, two healthy donors) was “significantly decrease MCP1/CCL2 secretion”. The “MCP-1 secretion (summary in words)” value (MCP-1) was “significantly reduced MCP-1 secretion in both donors”, the “Col1a1 Fold Expression Relative to Control, Mean” value (Col1a1; first donor, 1000 μM, single amino acid) was 1.00 fold and the “Col1a1 Fold Expression Relative to Control, Mean” value (Col1a1; first donor, 10000 μM, single amino acid) was 0.76 fold. The “Col1a1 Fold Expression Relative to Control, Mean” value (Col1a1; first donor, 5X, normalized to Gapdh, TGFβ1 3 ng/mL 24 h) was 1.00 fold, the “Col1a1 Fold Expression Relative to Control, Mean” value (Col1a1; first donor, 10X, normalized to Gapdh, TGFβ1 3 ng/mL 24 h) was 1.07 fold and the “Col1a1 Fold Expression Relative to Control, Mean” value (Col1a1; first donor, 20X, normalized to Gapdh, TGFβ1 3 ng/mL 24 h) was 1.02 fold. For the same compound, the “Col1a1 Fold Expression Relative to Control, Mean” value (Col1a1; first donor, 40X, normalized to Gapdh, TGFβ1 3 ng/mL 24 h) was 0.76 fold, the “Col1a1 gene expression (summary in words)” value (Col1a1; [3]) was “significantly reduced Col1a1 gene expression in all three donors” and the “Col1a1 Fold Expression Relative to Control, Mean” value (Col1a1; second donor (Table 27), 1000 μM, single amino acid) was 0.69 fold. For the same compound, the “Col1a1 Fold Expression Relative to Control, Mean” value (Col1a1; second donor (Table 27), 2500 μM, single amino acid) was 0.69 fold, the “Col1a1 Fold Expression Relative to Control, Mean” value (Col1a1; second donor (Table 27), 5000 μM, single amino acid) was 0.69 fold and the “Col1a1 Fold Expression Relative to Control, Mean” value (Col1a1; second donor (Table 27), 10000 μM, single amino acid) was 0.57 fold. For the same compound, the “Col1a1 Fold Expression Relative to Control, Mean” value (Col1a1; second donor (Table 29), 1000 μM, single amino acid) was 0.91 fold, the “Col1a1 Fold Expression Relative to Control, Mean” value (Col1a1; second donor (Table 29), 2500 μM, single amino acid) was 0.82 fold and the “Col1a1 Fold Expression Relative to Control, Mean” value (Col1a1; second donor (Table 29), 5000 μM, single amino acid) was 0.73 fold. The “Col1a1 Fold Expression Relative to Control, Mean” value (Col1a1; second donor (Table 29), 10000 μM, single amino acid) was 0.62 fold, the “Col1a1 Fold Expression Relative to Control, Mean” value (Col1a1; second donor, 5X, normalized to Gapdh, TGFβ1 3 ng/mL 24 h) was 0.69 fold and the “Col1a1 Fold Expression Relative to Control, Mean” value (Col1a1; second donor, 10X, normalized to Gapdh, TGFβ1 3 ng/mL 24 h) was 0.69 fold. For the same compound, the “Col1a1 Fold Expression Relative to Control, Mean” value (Col1a1; second donor, 20X, normalized to Gapdh, TGFβ1 3 ng/mL 24 h) was 0.69 fold, the “Col1a1 Fold Expression Relative to Control, Mean” value (Col1a1; second donor, 40X, normalized to Gapdh, TGFβ1 3 ng/mL 24 h) was 0.57 fold and the “Col1a1 Fold Expression Relative to Control, Mean” value (Col1a1; third donor, 5X, normalized to Gapdh, TGFβ1 3 ng/mL 24 h) was 0.91 fold. The “Col1a1 Fold Expression Relative to Control, Mean” value (Col1a1; third donor, 10X, normalized to Gapdh, TGFβ1 3 ng/mL 24 h) was 0.82 fold, the “Col1a1 Fold Expression Relative to Control, Mean” value (Col1a1; third donor, 20X, normalized to Gapdh, TGFβ1 3 ng/mL 24 h) was 0.73 fold and the “Col1a1 Fold Expression Relative to Control, Mean” value (Col1a1; third donor, 40X, normalized to Gapdh, TGFβ1 3 ng/mL 24 h) was 0.62 fold. For the same compound, the “IL-6 secretion (summary in words)” value (IL-6 [1]) was “reduced IL-6 secretion in both donors but was only statistically significant in one of two donors”, the “LPS-induced IL-6 secretion (summary in words)” value (“LPS-induced IL-6 secretion” for short) (IL-6 [2]; Donor 1) was “significantly reduced LPS-induced IL-6 secretion” and the “LPS-induced IL-6 secretion” value (IL-6 [2]; Donor 2) was “significantly reduced LPS-induced IL-6 secretion”. For the same compound, the “IL-6 Measurements, Mean” value (IL-6 [2]; Donor 2, Conc. 5 X) was −0.7946, the “IL-6 Measurements, Mean” value (IL-6 [2]; Donor 2, Conc. 10 X) was −9.751 and the “IL-6 Measurements, Mean” value (IL-6 [2]; Donor 2, Conc. 40 X) was −33.7585. The “LPS-induced IL-6 secretion” value (IL-6 [2]; Donor 3) was “significantly reduced LPS-induced IL-6 secretion”, the “LPS-induced TNF-α secretion (summary in words)” value (“LPS-induced TNF-α secretion” for short) (TNF-α; Donor 1) was “significantly reduced LPS-induced TNF-α secretion” and the “TNF-α Measurements Mean (baseline subtracted)” value (from here on “TNF-α Measurements Mean”) (TNF-α; Donor 1, Conc. 0 X (baseline)) was 0. For the same compound, the “TNF-α Measurements Mean” value (TNF-α; Donor 1, Conc. 5 X) was −326.24, the “TNF-α Measurements Mean” value (TNF-α; Donor 1, Conc. 10 X) was −446.88 and the “TNF-α Measurements Mean” value (TNF-α; Donor 1, Conc. 20 X) was −561.33. For the same compound, the “TNF-α Measurements Mean” value (TNF-α; Donor 1, Conc. 40 X) was −644.49, the “LPS-induced TNF-α secretion” value (TNF-α; Donor 2) was “significantly reduced LPS-induced TNF-α secretion” and the “TNF-α Measurements Mean” value (TNF-α; Donor 2, Conc. 0 X (baseline)) was 9.47E−15. The “TNF-α Measurements Mean” value (TNF-α; Donor 2, Conc. 5 X) was −54.1596, the “TNF-α Measurements Mean” value (TNF-α; Donor 2, Conc. 10 X) was −70.8382 and the “TNF-α Measurements Mean” value (TNF-α; Donor 2, Conc. 20 X) was −88.6528. For the same compound, the “TNF-α Measurements Mean” value (TNF-α; Donor 2, Conc. 40 X) was −103.984, the “LPS-induced TNF-α secretion” value (TNF-α; Donor 3) was “significantly reduced LPS-induced TNF-α secretion” and the “TNF-α Measurements Mean” value (TNF-α; Donor 3, Conc. 0 X (baseline)) was 4.74E−15. For the same compound, the “TNF-α Measurements Mean” value (TNF-α; Donor 3, Conc. 5 X) was −33.6246, the “TNF-α Measurements Mean” value (TNF-α; Donor 3, Conc. 10 X) was −41.7266 and the “TNF-α Measurements Mean” value (TNF-α; Donor 3, Conc. 20 X) was −48.4373. For the same compound, the “TNF-α Measurements Mean” value (TNF-α; Donor 3, Conc. 40 X) was −55.3093, the “Procollagen lα1 Secretion (Fold Change of 1X), Mean” value (Procollagen Iα1; 5X) was 0.9175 fold and the “Procollagen lα1 Secretion (Fold Change of 1X), Mean” value (Procollagen Iα1; 10X) was 0.7939 fold. For the same compound, the “Procollagen lα1 Secretion (Fold Change of 1X), Mean” value (Procollagen Iα1; 20X) was 0.6593 fold, the “Procollagen lα1 Secretion (Fold Change of 1X), Mean” value (Procollagen Iα1; 40X) was 0.5076 fold and the “procollagen Iα1 secretion (summary in words)” value (Procollagen Iα1; [3]) was “significantly decrease procollagen Iα1 secretion in two of the three donors”. The “Procollagen Iα1 Secretion, Mean” value (Procollagen Iα1; second donor, Conc. 5 X) was 0.8387 Fold Change of 1X, the “Procollagen Iα1 Secretion, Mean” value (Procollagen Iα1; second donor, Conc. 10 X) was 0.8877 Fold Change of 1X and the “Procollagen Iα1 Secretion, Mean” value (Procollagen Iα1; second donor, Conc. 20 X) was 0.7378 Fold Change of 1X. The “Procollagen Iα1 Secretion, Mean” value (Procollagen Iα1; second donor, Conc. 40 X) was 0.8383 Fold Change of 1X, the “Procollagen Iα1 Secretion, Mean” value (Procollagen Iα1; third donor, Conc. 5 X) was 1.0897 Fold Change of 1× and the “Procollagen Iα1 Secretion, Mean” value (Procollagen Iα1; third donor, Conc. 10 X) was 0.9391 Fold Change of 1×. The “Procollagen Iα1 Secretion, Mean” value (Procollagen Iα1; third donor, Conc. 20 X) was 0.8521 Fold Change of 1× and the “Procollagen Iα1 Secretion, Mean” value (Procollagen Iα1; third donor, Conc. 40 X) was 0.6962 Fold Change of 1×.
